Laboratory results reported in BindingDB's records for doi:10.7270/Q2TX3CTT (Broad Institute, 2010).

Molecular target: Glycogen synthase kinase-3 beta (Homo sapiens, UniProt P49841)
Experiment: GSK3beta kinase inhibitor potency, dose response, biochemical, luminescence, cell-free homogeneous, retest (AID 434954)

Chain of Glycogen synthase kinase-3 beta (P49841 whole entry): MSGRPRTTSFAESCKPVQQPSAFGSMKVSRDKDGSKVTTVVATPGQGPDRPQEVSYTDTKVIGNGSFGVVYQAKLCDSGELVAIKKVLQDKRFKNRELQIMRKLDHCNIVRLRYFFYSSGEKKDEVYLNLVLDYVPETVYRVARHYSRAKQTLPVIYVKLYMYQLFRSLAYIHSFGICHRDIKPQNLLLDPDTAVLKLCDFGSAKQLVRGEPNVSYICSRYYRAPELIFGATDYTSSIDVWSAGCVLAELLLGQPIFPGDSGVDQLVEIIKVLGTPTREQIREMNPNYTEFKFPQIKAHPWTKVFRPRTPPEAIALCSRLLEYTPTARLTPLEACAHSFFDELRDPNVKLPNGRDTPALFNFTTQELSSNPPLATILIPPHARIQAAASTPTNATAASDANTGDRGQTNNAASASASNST

Row | SMILES | EC50
1 | CNC(=O)c1ccccc1NC(=O)c1cccc(S(=O)(=O)N2CCC(C)CC2)c1 [N-methyl-2-({3-[(4-methylpiperidin-1-yl)sulfonyl]benzoyl}amino)benzamide] | > 300 µM
2 | CNCCCOc1cc(C)cc(C)c1C [N-methyl-3-(2,3,5-trimethylphenoxy)propan-1-amine;oxalic acid] | > 300 µM
3 | c1ccc2c(Nc3nc(-c4ccncc4)nc4ccccc34)cccc2c1 [N-naphthalen-1-yl-2-pyridin-4-ylquinazolin-4-amine] | > 300 µM
4 | CC(C)(C)NC1=NN=C(c2ccc(Cl)cc2)CS1 [N-tert-butyl-5-(4-chlorophenyl)-6H-1,3,4-thiadiazin-2-amine] | > 300 µM
5 | COc1ccc(C(=O)c2sc(Nc3ccc(NC(C)=O)cc3)nc2C)cc1 [N-{4-[5-(4-Methoxy-benzoyl)-4-methyl-thiazol-2-ylamino]-phenyl}-acetamide] | > 300 µM
6 | N#Cc1c(O)nc(SCC(=O)Nc2ccc(OC(F)(F)Cl)cc2)nc1-c1ccccc1 [N-{4-[chloro(difluoro)methoxy]phenyl}-2-[(5-cyano-6-oxo-4-phenyl-1,6-dihydropyrimidin-2-yl)thio]acetamide] | > 300 µM
7 | O=c1cc(-c2ccc(O)cc2)oc2cc(O)cc(O)c12 [Naringenin, 18] | 49.5 µM
8 | O=C(NN=Cc1ccccn1)c1cccnc1 [Nicotinic acid [1-pyridin-2-yl-meth-(E)-ylidene]-hydrazide] | > 300 µM
9 | O=c1c(-c2ccc(O)cc2)coc2cc(O)cc(O)c12 [Prunetol] | > 300 µM
10 | O=c1cc(O)cc2oc(-c3ccc(O)c(O)c3)c(O[C@@H]3O[C@H](CO)[C@@H](O)[C@H](O)[C@H]3O)c(O)c1-2 [Quercetin 3-O-beta-D-glucoside] | 15.8 µM
11 | Fc1ccc(CSc2nnc(-c3cccs3)o2)cc1 [SMR000003242] | > 300 µM
12 | COc1ccccc1N1CCN(C(=O)Cn2nnc(-c3ccncc3)n2)CC1 [SMR000003468] | > 300 µM
13 | COCCN(CC(=O)NCc1ccccc1)C(=O)CCC(=O)Nc1ccccn1 [SMR000004552] | > 300 µM
14 | O=C(CSc1nnc(-c2ccncc2)o1)Oc1ccccc1 [SMR000006341] | > 300 µM
15 | c1cc(CSc2nnc(-c3ccc4c(c3)OCO4)o2)ccn1 [SMR000006350] | 1.71 µM
16 | N#Cc1cccc(-c2nnc(SCc3ccccc3C#N)o2)c1 [SMR000006352] | > 300 µM
17 | c1ccc(OCCCn2nnc(-c3ccncc3)n2)cc1 [SMR000008082] | 20.3 µM
18 | COc1ccc(NC(=O)c2sc(SC)nc2N)cc1 [SMR000011170] | > 300 µM
19 | COc1ccc2nc(NC(=O)CSC3=NCCS3)sc2c1 [SMR000012424] | > 300 µM
20 | COc1cccc(C(=O)Nc2nnc(C(C)C)s2)c1 [SMR000013475] | > 300 µM
21 | COc1ccc(-c2nn(-c3ccccc3)cc2C(=O)O)cc1 [SMR000015534] | > 300 µM
22 | CC(C)C(=O)NC(C)C(c1cccs1)N1CCN(c2ccccc2)CC1 (stereo unspecified) [SMR000016589] | > 300 µM
23 | CC(=O)C(Sc1ccc2nnc(-c3ccc(F)cc3)n2n1)C(C)=O [SMR000016797] | > 300 µM

Row | SMILES | EC50
24 | CC(C)CCn1c(CN2CCN(c3cccc(Cl)c3)CC2)nc2c1c(=O)n(C)c(=O)n2C [SMR000017148] | > 300 µM
25 | NC(=O)c1c(NC(=O)CN2C(=O)CCC2=O)sc2c1CCCCC2 [SMR000018552] | > 300 µM
26 | CCOC(=O)CSc1ccc2nnc(-c3cccnc3)n2n1 [SMR000018940] | > 300 µM
27 | CCOC(=O)c1nnn(-c2nonc2N)c1CSc1ccc(C)cc1 [SMR000020597] | 160 µM
28 | CC1CCCN(S(=O)(=O)c2ccc(Br)s2)C1 (stereo unspecified) [SMR000021898] | > 300 µM
29 | Cc1nn(Cc2ccc(Cl)c(Cl)c2)c(C)c1NC(=O)c1noc2c1CCCCC2 [SMR000023628] | > 300 µM
30 | Cc1ccc(-n2c(C)nc3c(cnn3-c3ccc(F)cc3)c2=O)cc1C [SMR000026457] | > 300 µM
31 | CCSc1ccc2nnc(-c3ccc(F)cc3)n2n1 [SMR000028943] | 2.82 µM
32 | CCOc1ccc(-c2nnc3ccc(SC)nn23)cc1 [SMR000028968] | > 300 µM
33 | O=C(O)c1ccccc1NCc1ccncc1 [SMR000031483] | > 300 µM
34 | Cc1cc2c(N3CCCCC3C)ncnc2s1 (stereo unspecified) [SMR000033135] | > 300 µM
35 | CCOc1cc(C2c3c(C)n[nH]c3C(=O)N2c2ccc(C)cc2)ccc1O (stereo unspecified) [SMR000035605] | > 300 µM
36 | COc1ccc(C2C3=C(CC(C)(C)CC3=O)Nc3c2c(=O)nc2nc(C)[nH]n32)cc1 (stereo unspecified) [SMR000035838] | > 300 µM
37 | N#Cc1c(N2CCCCC2)nc(N2CCCCC2)c2c1CCN(Cc1ccccc1)C2 [SMR000036037] | 3.3 µM
38 | Cc1nnc2n(-c3ccccc3)c(=O)c3c4c(sc3n12)COC(C)(C)C4 [SMR000038952] | > 300 µM
39 | CC1(C)Nc2ccc(O)cc2-c2c1ssc2=S [SMR000038969] | 21.4 µM
40 | O=c1c2[nH]c3ccccc3c2ncn1C1CCCCC1 [SMR000039546] | > 300 µM
41 | CN1CCc2c(sc3c2c(=O)n(-c2ccccc2)c2nnc(SCc4ccccc4)n32)C1 [SMR000039895] | > 300 µM
42 | Cc1nonc1-c1nnc(-c2nonc2N)[nH]1 [SMR000040798] | 29.7 µM
43 | CC1CCN(c2oc(-c3ccccc3Cl)nc2C#N)CC1 [SMR000041709] | > 300 µM
44 | CN1CCc2c(sc3c2c(=O)n(-c2ccc(Cl)cc2)c2nncn32)C1 [SMR000042939] | > 300 µM
45 | N#Cc1c(-c2cccs2)cc(-c2cccnc2)nc1N [SMR000043147] | 10.4 µM
46 | CCCCC(=O)Nc1nn(CC(C)C)c2nc3ccccc3cc12 [SMR000043369] | > 300 µM

Row | SMILES | EC50
47 | CCCn1nc(NC(=O)CC(C)C)c2cc3ccccc3nc21 [SMR000043522] | > 300 µM
48 | CCCCc1cc(=O)oc2cc(C)cc(OC(C)C(=O)O)c12 (stereo unspecified) [SMR000043773] | > 300 µM
49 | O=C1c2ccccc2-c2onc3ccc(NCCCn4ccnc4)c1c23 [SMR000044769] | 167 µM
50 | CN1CCc2c(sc3c2c(=O)n(-c2ccccc2)c2nnc(SCc4ccc(Cl)cc4)n32)C1 [SMR000045323] | > 300 µM
51 | CN1CCc2c(sc3c2c(=O)n(-c2ccccc2)c2nncn32)C1 [SMR000045494] | > 300 µM
52 | CCCCn1nc(NC(=O)c2cccs2)c2cc3cc(OC)ccc3nc21 [SMR000046614] | 9.23 µM
53 | CCOc1cc(C2c3c(n[nH]c3C)C(=O)N2c2ccc(Br)cc2)ccc1O (stereo unspecified) [SMR000059772] | > 300 µM
54 | O=C(CSc1nnc(-c2ccncc2)n1-c1ccc(F)cc1)NC(=O)NCc1ccco1 [SMR000065428] | > 300 µM
55 | COc1ccc(-c2nn(-c3ccccc3)cc2C=Nn2cnnc2)cc1OC [SMR000066046] | > 300 µM
56 | CN(C)Cc1c(O)ccc2occ(C(=O)c3ccccc3)c12 [SMR000069709] | > 300 µM
57 | O=C(NCC1COc2ccccc2O1)c1ccccc1 (stereo unspecified) [SMR000069822] | > 300 µM
58 | COCCNC(=O)c1ccc(Cl)c(Cl)c1 [SMR000069998] | > 300 µM
59 | COc1ccc(C(O)c2coc3ccc(O)c(CN(C)C)c23)cc1 (stereo unspecified) [SMR000070308] | > 300 µM
60 | O=C(N1CCN(c2ccccc2F)CC1)C12CC3CC(CC(C3)C1)C2 [SMR000071700] | > 300 µM
61 | O=C(NCc1ccccn1)c1ccc(Cn2cc(Br)cn2)o1 [SMR000073000] | > 300 µM
62 | Cc1ccc(S(=O)(=O)N(C)CC(=O)N2CCCc3ccccc32)cc1 [SMR000076264] | > 300 µM
63 | Cc1ccc(C(=O)Nc2ccccc2C(=O)NCc2ccco2)cc1S(=O)(=O)N1CCCCC1 [SMR000076380] | > 300 µM
64 | O=C(Nc1ccccc1C(=O)N1CCOCC1)C1CCCO1 (stereo unspecified) [SMR000077483] | > 300 µM
65 | O=C(Nc1nccs1)C1CCCN1S(=O)(=O)c1cccc2cccnc12 (stereo unspecified) [SMR000096012] | 30.2 µM
66 | COc1ccc2occ(C(=O)c3ccc(N=C(C)N(C)C)cc3)c2c1 [SMR000104711] | 21.6 µM
67 | CC1(C)CC(=O)C=C(Nc2ccccc2F)C1 [SMR000105669] | > 300 µM
68 | CC(=O)Oc1ccc2occ(C(=O)c3cccs3)c2c1 [SMR000106284] | > 300 µM
69 | CCCOC(=O)c1ccc(O)cc1 [SMR000112070] | > 300 µM

Row | SMILES | EC50
70 | O=C1NC(c2cccnc2)Nc2sc3c(c21)CCCC3 (stereo unspecified) [SMR000114421] | > 300 µM
71 | CCN(CC)C(=O)CSc1nc(N)c(C#N)c(-c2cccs2)c1C#N [SMR000115110] | > 300 µM
72 | Nc1c(C(=O)c2ccccc2)sc(Nc2ccccc2)c1S(=O)(=O)c1ccccc1 [SMR000115215] | > 300 µM
73 | COc1ccc2c(c1)-c1c(ssc1=S)C(C)(C)N2 [SMR000116363] | 6.72 µM
74 | CCOc1ccc2c(c1)-c1c(ssc1=S)C(C)(C)N2 [SMR000116364] | > 300 µM
75 | CCOc1cc(C)cc2oc(=O)cc(-c3ccccc3)c12 [SMR000116517] | > 300 µM
76 | O=c1oc(-c2cccs2)nc2sc3c(c12)CCCC3 [SMR000116853] | > 300 µM
77 | Cn1c(=O)c2[nH]c(CN3CCN(Cc4ccccc4)CC3)nc2n(C)c1=O [SMR000120891] | > 300 µM
78 | O=C(CCl)Oc1ccc2occ(C(=O)c3cccs3)c2c1 [SMR000121351] | 4.54 µM
79 | Cc1cc(OCC(F)(F)C(F)(F)C(F)(F)C(F)F)nc(N)n1 [SMR000122155] | > 300 µM
80 | COCC/N=C1\Sc2nc3c(C)cccc3cc2CN1Cc1ccco1 [SMR000122349] | > 300 µM
81 | CC(C)CC(=O)Nc1ccccc1-c1nnn(CC(=O)N2CCc3ccccc3C2)n1 [SMR000122537] | > 300 µM
82 | COCCn1nnnc1C(c1cc2cc(C)ccc2[nH]c1=O)N1CCc2ccccc21 (stereo unspecified) [SMR000122998] | > 300 µM
83 | Cc1ccc(C(=O)Nc2ccc(S(=O)(=O)NCc3ccco3)cc2)cc1 [SMR000123393] | > 300 µM
84 | CC1CCc2c(sc3nn[nH]c(=O)c23)C1 (stereo unspecified) [SMR000124179] | 39 µM
85 | COc1ccc(-c2nn(-c3ccccc3)cc2C(=O)O)cc1OC [SMR000124387] | > 300 µM
86 | CCOc1ccc(N2C(=O)C(=Nc3ccccc3O)C(Cl)C2=O)cc1 (stereo unspecified) [SMR000124402] | > 300 µM
87 | O=C1CCCc2oc3ccc(O)cc3c21 [SMR000125008] | > 300 µM
88 | O=C(NCc1cccs1)c1cc(C2CC2)on1 [SMR000127641] | > 300 µM
89 | O=C(C(Cc1ccccc1)n1cccc1)N1CCN(c2cccc(Cl)c2)CC1 (stereo unspecified) [SMR000127921] | > 300 µM
90 | CCOC(=O)c1cnc2ccc(OCC)cc2c1N1CCN(c2ccccc2)CC1 [SMR000130091] | 29 µM
91 | COc1ccc(C2=NOC(C(=O)Nc3cccnc3)C2)cc1 (stereo unspecified) [SMR000130842] | > 300 µM
